{"source": "patent US8058242B2", "about": "“Chimeric proteins with natriuretic activity” (The University of Queensland, priority 2004, dated 2011)", "key": {"[1]": {"target": "T1, Plasmin (Homo sapiens, UniProt P00747)", "T1 construct": "with 500 ng Endopeptidase (NEP) or 10 μg Plasmin", "T1 sequence (P00747 97-580 partner limits assumed, species assumed)": "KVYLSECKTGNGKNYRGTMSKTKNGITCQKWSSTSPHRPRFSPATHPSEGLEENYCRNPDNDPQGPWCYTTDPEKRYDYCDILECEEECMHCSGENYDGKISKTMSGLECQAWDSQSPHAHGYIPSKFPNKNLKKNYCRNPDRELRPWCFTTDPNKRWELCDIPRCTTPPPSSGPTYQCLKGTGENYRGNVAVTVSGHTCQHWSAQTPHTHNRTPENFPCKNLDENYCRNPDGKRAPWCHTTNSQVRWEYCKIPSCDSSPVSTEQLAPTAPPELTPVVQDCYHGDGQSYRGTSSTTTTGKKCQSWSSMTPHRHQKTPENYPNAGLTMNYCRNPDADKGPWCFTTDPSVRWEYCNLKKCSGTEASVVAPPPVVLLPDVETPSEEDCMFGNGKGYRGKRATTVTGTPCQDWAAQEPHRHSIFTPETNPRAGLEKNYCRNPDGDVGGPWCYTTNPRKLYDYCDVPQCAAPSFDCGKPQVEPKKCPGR", "T1 sequence (P00747 581-810 limits assumed, species assumed)": "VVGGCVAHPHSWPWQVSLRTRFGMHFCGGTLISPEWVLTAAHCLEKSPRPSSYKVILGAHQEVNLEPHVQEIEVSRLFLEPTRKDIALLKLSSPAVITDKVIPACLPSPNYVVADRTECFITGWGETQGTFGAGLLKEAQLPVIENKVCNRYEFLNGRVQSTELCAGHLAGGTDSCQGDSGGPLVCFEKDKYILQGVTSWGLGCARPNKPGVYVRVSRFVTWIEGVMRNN", "assay": "Stability to enzymatic degradation by plasmin (Examples 7, 16)", "assay_type": "in vitro ADME", "settings": "plasmin, 37° C.", "in_short": "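Peptide (100 μl of 500 μM) was incubated at 37 °C in 100 mM Tris/HCl, 150 mM NaCl, pH 7.2-7.4 with 500 ng NEP or 10 μg plasmin. Samples were taken from 5 min to 24 h and heat-quenched at 100 °C for 4 min. Remaining peptide was measured by RP-HPLC.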"}, "[2]": {"test_system": "conscious rabbits", "assay": "Blood pressure and heart rate in conscious rabbits, intravenous infusion dose-response (Example 8)", "settings": "for Diastolic BP, mean difference from control / HR, mean difference from control / Mean BP, mean difference from control / Systolic BP, mean difference from control: 45 min"}, "[3]": {"test_system": "endothelium-intact aortic rings (NPR-C mediated)", "assay": "Aortic ring relaxation, endothelium-intact rings pre-contracted with 40 mM KCl (Example 3)", "design": "species or system rat", "settings": "endothelium-intact rat aortas pre-contracted with 40 mM KCl; peptide 0.1 μM", "protocol": "(§1) Male Sprague Dawley rats were killed and the descending thoracic aorta rapidly removed and flushed with physiological solution. After being cleared of adhering fat and connective tissue, 5 mm rings were mounted under 10 g resting tension, between two stainless steel hooks, in organ baths (37° C.) containing carbogenated (95% O2 and 5% CO2) physiological salt solution of the following composition (mM): NaCl, 118.4; NaHCO3, 25; glucose, 11; KCl, 4.7; MgSO4, 1.2; KH2PO4, 1.2 and CaCl2, 2.5. The lower hook was attached to a tissue holder and the upper hook to a force displacement transducer (Grass FTO3). Where indicated endothelial cells were removed by gentle rubbing of the intimal surface with a wire. To confirm the presence or absence of endothelial cells, tissues were precontracted with a sub-maximal concentration of phenylephrine (0.3 μM) and the response to acetylcholine (ACh, 10 μM) observed. Ach-induced relaxation greater than 80% of maximum indicated the presence of endothelium; whereas Ach-induced relaxation less than 10% indicated the absence of endothelium. Ring preparations under resting tension were conditioned by two contraction/relaxation cycles with 40 mM KCl, contracted by a third application of 40 mM KCl and then relaxed with different doses of the venom peptides. Responses were expressed as a percentage relaxation of the precontraction by KCl."}, "[4]": {"target": "T2, Natriuretic Peptide Receptor-A (NPR-A) signaling in MDCK cells (Canis lupus familiaris, UniProt A0A8I3MHU3)", "T2 sequence (A0A8I3MHU3 32-1060)": "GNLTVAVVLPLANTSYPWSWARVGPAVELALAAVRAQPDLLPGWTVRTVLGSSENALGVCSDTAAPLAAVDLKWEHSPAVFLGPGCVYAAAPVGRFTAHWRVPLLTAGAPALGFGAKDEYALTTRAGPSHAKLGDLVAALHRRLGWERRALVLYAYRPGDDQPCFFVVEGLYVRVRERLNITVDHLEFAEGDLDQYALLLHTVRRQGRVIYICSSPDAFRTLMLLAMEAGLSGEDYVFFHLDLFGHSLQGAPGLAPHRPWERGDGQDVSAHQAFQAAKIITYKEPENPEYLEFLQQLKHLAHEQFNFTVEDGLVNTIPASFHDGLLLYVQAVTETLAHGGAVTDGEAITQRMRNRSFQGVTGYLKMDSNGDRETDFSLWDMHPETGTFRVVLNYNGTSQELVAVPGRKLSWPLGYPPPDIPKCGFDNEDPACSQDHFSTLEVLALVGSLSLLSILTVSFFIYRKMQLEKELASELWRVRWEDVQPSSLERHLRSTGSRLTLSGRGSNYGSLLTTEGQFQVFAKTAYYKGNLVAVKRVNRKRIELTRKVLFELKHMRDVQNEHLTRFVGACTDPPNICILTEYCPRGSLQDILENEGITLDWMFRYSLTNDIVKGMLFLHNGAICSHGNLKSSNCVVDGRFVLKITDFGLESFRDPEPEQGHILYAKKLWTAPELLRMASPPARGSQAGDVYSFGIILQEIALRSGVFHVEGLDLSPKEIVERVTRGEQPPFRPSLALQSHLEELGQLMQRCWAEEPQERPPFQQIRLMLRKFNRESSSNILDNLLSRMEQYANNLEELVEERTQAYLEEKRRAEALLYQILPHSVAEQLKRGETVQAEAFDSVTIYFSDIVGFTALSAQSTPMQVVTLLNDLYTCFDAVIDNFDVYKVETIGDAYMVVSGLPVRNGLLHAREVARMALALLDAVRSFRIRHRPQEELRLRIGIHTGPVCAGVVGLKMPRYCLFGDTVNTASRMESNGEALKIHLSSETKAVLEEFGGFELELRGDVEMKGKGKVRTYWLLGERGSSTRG", "assay_type": "cell-based, canine", "settings": "stimulation of cGMP accumulation in MDCK cells"}, "[5]": {"test_system": "endothelium-denuded aortic rings (GC-A mediated)", "assay": "Aortic ring relaxation, endothelium-denuded rings pre-contracted with 40 mM KCl (Example 3)", "design": "species or system rat", "settings": "endothelium-denuded rat aortas pre-contracted with 40 mM KCl; peptide 0.1 μM", "protocol": "as §1"}, "[6]": {"settings": "after 1 hour recovery period, Table 10A"}, "[7]": {"settings": "average of the 3 doses 1.0, 2.0, 4.0 μg/kg/min"}}, "note": "Positions of bridges follow the written chain, without caps; N, C: chain ends. Residues, ends and D or L forms follow the SMILES beside them."}
{"smiles": "CC[C@H](C)[C@@H]1NC(=O)[C@H](CCCCN)NC(=O)[C@H](Cc2c[nH]cn2)NC(=O)CNC(=O)[C@H](Cc2ccccc2)NC(=O)[C@@H](NC(=O)[C@@H]2CCCN2C(=O)[C@H](CC(=O)O)NC(=O)[C@H](Cc2ccc(O)cc2)NC(=O)[C@H](CCCCN)NC(=O)[C@@H](NC(=O)[C@@H](N)CCC(=O)O)C(C)C)CSSC[C@@H](C(=O)N2CCC[C@H]2C(=O)N[C@@H](CO)C(=O)N[C@@H](CC(C)C)C(=O)N[C@@H](CCCNC(=N)N)C(=O)N[C@@H](CC(=O)O)C(=O)N2CCC[C@H]2C(=O)N[C@@H](CCCNC(=N)N)C(=O)N2CCC[C@H]2C(=O)N[C@@H](CC(N)=O)C(=O)N[C@@H](C)C(=O)N2CCC[C@H]2C(=O)N[C@@H](CO)C(=O)N[C@H](C(=O)N[C@@H](CO)C(=O)N[C@@H](C)C(=O)O)[C@@H](C)O)NC(=O)CNC(=O)[C@H](CC(C)C)NC(=O)[C@H](CC(N)=O)NC(=O)[C@H](CO)NC(=O)[C@H](C(C)C)NC(=O)[C@H](Cc2c[nH]cn2)NC(=O)[C@H](CC(N)=O)NC(=O)[C@H]([C@@H](C)CC)NC(=O)[C@H](CCCNC(=N)N)NC(=O)[C@H](CC(=O)O)NC1=O", "note": "[DNP, reference compound] (H-EVKYDPCFGHKIDRINHVSNLGCPSLRDPRPNAPSTSA-OH; disulfide 7-23; N-terminus and C-terminus assumed)", "values": [{"measurement": "half-life at 125 μM", "setting": "[1]; plasmin in Tris/HCl-NaCl buffer, read-out: HalfLife in plasmin", "result": 29.1, "unit": "min"}, {"measurement": "K (one phase exponential decay, best fit values)", "setting": "[1]", "result": 0.02381}, {"measurement": "PLATEAU (one phase exponential decay, best fit values)", "setting": "[1]", "result": 0.1675}, {"measurement": "SPAN (one phase exponential decay, best fit values)", "setting": "[1]", "result": 0.7306}, {"measurement": "Recovery (MAP)", "setting": "[2]; [6]", "result": 61.4, "unit": "mm Hg"}, {"measurement": "Recovery Delta SED (MAP)", "setting": "[2]; [6]", "result": "2.5 ± 1.1", "unit": "mm Hg"}, {"measurement": "Diastolic BP, Average Response SED", "setting": "[2]; [7]", "result": "−9.0 ± 0.9", "unit": "mmHg"}, {"measurement": "HR, Average Response SED", "setting": "[2]; [7]", "result": "17.3 ± 6.4", "unit": "bpm"}, {"measurement": "Mean BP (MAP), Average Response SED", "setting": "[2]; [7]", "result": "−14.2±0.8", "unit": "mmHg"}, {"measurement": "Systolic BP, Average Response SED", "setting": "[2]; [7]", "result": "−13.3 ± 0.8", "unit": "mmHg"}, {"measurement": "MAP at final dose", "setting": "[2]; highest dose, Table 10A", "result": 58.9, "unit": "mm Hg"}, {"measurement": "Treatment Effect, change of mean blood pressure during the infusion", "setting": "[2]; highest dose, Table 10A, groups 1, 2A and 3", "result": "−17.2", "unit": "mm Hg"}, {"measurement": "Diastolic BP, mean difference from control", "setting": "[2]; i.v. infusion 1.0 μg/kg/min", "result": "−8.5", "unit": "mmHg"}, {"measurement": "HR, mean difference from control", "setting": "[2]; i.v. infusion 1.0 μg/kg/min", "result": 17.5, "unit": "bpm"}, {"measurement": "Mean BP, mean difference from control", "setting": "[2]; i.v. infusion 1.0 μg/kg/min", "result": "−13.0", "unit": "mmHg"}, {"measurement": "Systolic BP, mean difference from control", "setting": "[2]; i.v. infusion 1.0 μg/kg/min", "result": "−11.7", "unit": "mmHg"}, {"measurement": "Diastolic BP, mean difference from control", "setting": "[2]; i.v. infusion 2.0 μg/kg/min", "result": "−6.9", "unit": "mmHg"}, {"measurement": "HR, mean difference from control", "setting": "[2]; i.v. infusion 2.0 μg/kg/min", "result": 25.9, "unit": "bpm"}, {"measurement": "Mean BP, mean difference from control", "setting": "[2]; i.v. infusion 2.0 μg/kg/min", "result": "−12.6", "unit": "mmHg"}, {"measurement": "Systolic BP, mean difference from control", "setting": "[2]; i.v. infusion 2.0 μg/kg/min", "result": "−11.9", "unit": "mmHg"}, {"measurement": "Diastolic BP, mean difference from control", "setting": "[2]; i.v. infusion 4.0 μg/kg/min", "result": "−11.7", "unit": "mmHg"}, {"measurement": "HR, mean difference from control", "setting": "[2]; i.v. infusion 4.0 μg/kg/min", "result": 8.5, "unit": "bpm"}, {"measurement": "Mean BP, mean difference from control", "setting": "[2]; i.v. infusion 4.0 μg/kg/min", "result": "−17.2", "unit": "mmHg"}, {"measurement": "Systolic BP, mean difference from control", "setting": "[2]; i.v. infusion 4.0 μg/kg/min", "result": "−16.4", "unit": "mmHg"}, {"measurement": "percentage relaxation of the precontraction by KCl", "setting": "[3]", "result": "~100", "unit": "%"}, {"measurement": "−Log10 EC50 (pEC50) ± Standard Error", "setting": "[4]", "result": "8.080 ± 1.411"}, {"measurement": "percentage relaxation of the precontraction by KCl", "setting": "[5]", "result": "~100", "unit": "%"}]}
